{
  "source": "patent US20080312184A1",
  "about": "(priority 2005, published 2008)",
  "key": {"[1]": {"tested_on": "powdery mildew pathogen (EBI resistant strain)", "assay": "Control Test on Powdery Mildew of Cucumbers (EBI Resistant Strain)", "format": "in vivo, cucumbers (cultivar: sagami-hanjiro)", "settings": "single active ingredient"}, "[2]": {"tested_on": "gray mold fungus (MBC resistant, dicarboximide-based chemical sensitive: RS strain)", "assay": "Control Test on Gray Mold of Tomato at its Flowering Stage (RS Strain)", "format": "in vivo, tomatoes (cultivar: House-Momotaro)", "settings": "Table 4, single active ingredient, sprayed twice, examined after 7 days"}, "[3]": {"settings": "Table 1, treated concentration 10 ppm, examined after 14 days"}},
  "data": [
    {"smiles": "CC(C)CC(C)c1sccc1NC(=O)c1cn(C)nc1C(F)(F)F", "note": "(racemic) [P (penthiopyrad), (RS)—N-[2-(1,3-dimethylbutyl)thiophen-3-yl]-1-methyl-3-tri fluoromethyl-1H-pyrazole-4-carboxamide]", "values": [
      {"measurement": "Control Value", "setting": "[1]; [3]", "result": 68},
      {"measurement": "Control Value", "setting": "[1]; Table 7 (Example B), treated concentration 10 ppm", "result": 68},
      {"measurement": "Control Value", "setting": "[2]; treated concentration 10 ppm", "result": 56}
    ]},
    {"smiles": "CNC(=O)/C(=N/OC)c1ccccc1COc1cc(C)ccc1C", "note": "[Dimoxystrobin, dimoxystrobin]", "values": [
      {"measurement": "Control Value", "setting": "[1]; Table 7 (Example B), treated concentration 15 ppm", "result": 60}
    ]},
    {"smiles": "FC(F)C(F)(F)OCC(Cn1cncn1)c1ccc(Cl)cc1Cl", "note": "(stereo not drawn) [Tetraconazole, tetraconazole]", "values": [
      {"measurement": "Control Value", "setting": "[1]; [3]", "result": 34}
    ]},
    {"smiles": "CCOC(=O)C1(C)OC(=O)N(c2cc(Cl)cc(Cl)c2)C1=O", "note": "(stereo not drawn) [Chlozolinate, chlozolinate]", "values": [
      {"measurement": "Control Value", "setting": "[2]; treated concentration 40 ppm", "result": 42}
    ]},
    {"smiles": "CCCCc1c(C)nc(NCC)nc1OS(=O)(=O)N(C)C", "note": "[Bupirimate, bupirimate]", "values": [
      {"measurement": "Control Value", "setting": "[1]; Table 1, treated concentration 20 ppm, examined after 14 days", "result": 45}
    ]},
    {"smiles": "O=C(Nc1ccccc1-c1ccc(Cl)cc1)c1cccnc1Cl", "note": "[Boscalid, boscalid]", "values": [
      {"measurement": "Control Value", "setting": "[2]; treated concentration 20 ppm", "result": 48}
    ]},
    {"smiles": "CC(C)(C)C(=O)C(Oc1ccc(Cl)cc1)n1cncn1", "note": "(stereo not drawn) [Triadimefon, triadimefon]", "values": [
      {"measurement": "Control Value", "setting": "[1]; [3]", "result": 29}
    ]},
    {"smiles": "Clc1nc(Cl)nc(Nc2ccccc2Cl)n1", "note": "[Anilazine, anilazine]", "values": [
      {"measurement": "Control Value", "setting": "[2]; treated concentration 50 ppm", "result": 40}
    ]},
    {"smiles": "O=C(Cc1ccccc1)N/C(=N\\OCC1CC1)c1c(C(F)(F)F)ccc(F)c1F", "note": "[Cyflufenamid, cyflufenamid]", "values": [
      {"measurement": "Control Value", "setting": "[1]; Table 1, treated concentration 5 ppm, examined after 14 days", "result": 66}
    ]},
    {"smiles": "CC1(C(=O)Nc2ccc(O)c(Cl)c2Cl)CCCCC1", "note": "[Fenhexamid, fenhexamid]", "values": [
      {"measurement": "Control Value", "setting": "[2]; treated concentration 20 ppm", "result": 55}
    ]}
  ]
}
